Data reported in patent US20090215783A1, “COMPOSITION FOR INDUCTION OR INHIBITION OF STEM CELL DIFFERENTIATION” (CHOONGWAE PHARMA CORPORATION, priority 2006, published 2009).

Key:
[1] = test system: Mouse embryonic stem (ES) cells, TC1; test: Cardiomyogenesis modulating activity assay (alpha-MHC promoter EGFP, embryoid bodies, FACS/fluorescence microscopy); type: cell-based; settings: embryoid bodies treated for 5 days, FACS
Method: a. Cell culture: Mouse embryonic stem (ES) cells, TC1 derived from 129/S6 strain were cultured on irradiated feeder layer in the culture medium which is high-glucose DMEM (Gibco) BRL, Germany) supplemented with 15% FBS (Hyclone), 0.1 mM beta-mercaptoethanol, […] sodium pyruvate, 1 mM L-glutamine and 1× non-essential amino acids.
b. Establishment of alpha-MHC stably transformed ES cell line: A construct (FIG. 8) containing 1.8 kb promoter sequence of the mouse alpha-MHC gene between EcoRI and SalI sites of pEGFP-1 (Clontech Laboratories, Inc, CA, USA) was linearized at XhoI site, and was introduced into mouse ES cells, TC1, using the Gene Pulser II (BioRad, MA). A selection medium containing G418 was applied for two weeks from 24 hours after electroporation. The selected ES cell clones were harvested and expanded on the feeder cell layer. The green fluorescence-expressing clones when differentiated into cardiomyocytes were used in this experiment.
c. Cardiomyogenesis modulating activity assay: Embryoid body (EB) was formed by hanging drop culture using about a number of 600 (six hundred) ES cells for two days and it was further expanded by culturing in suspension condition on a Petri-dish for another two days. Then each EB was plated on a well of 96 well culture plates. Test compounds were dissolved in DMSO and diluted with culture media (final 0.05% DMSO) and EB was treated with test compound for 5 days. Culture medium was changed every three days after plating. Expression level of EGFP was measured with FACS (Beckman). For FACS analysis, differentiating cells were dissociated with trypsin. For the determination of the extent of differentiation, EB was observed and photographed with an inverted fluorescence microscope (Zeiss, Germany). Number of beating EBs was counted under the microscope and recorded once daily.

hBMMSC = test: Cell proliferation assay (CellTiter 96) in hBMMSC; type: cell-based, human; settings: 20 μM, treated alone
Method: Cell proliferation assay: To investigate the cytotoxicity of the test compounds for hBMMSC, hBMMSC were exposed to the test compounds for 6-7 days at the same condition above (method b and c). Cell proliferation was assessed using CellTiter 96 Aqueous One Solution (Promega, #G3581). Absorbance at 490 nm of each well was determined with a microplate reader (Molecular Device) and % growth inhibition was calculated compared with control.

[2] = test system: human bone marrow derived-mesenchymal stem cells (hBMMSC); test: Osteogenesis modulating activity assay by test compound alone (ALP activity); type: cell-based; settings: for fold induction at 20 µM: Homo sapiens, 168 h, hBMMSC, 20 μM test compound alone, six to seven days, read-out: Osteogenesis: fold change of ALP activity compared with DMSO control
Method: (§1) Cell culture: Human bone marrow derived-mesenchymal stem cells (hBMMSC) were isolated from normal subjects.
Osteogenesis modulating activity assay by test compound alone: hBMMSC were cultivated in the culture medium and cells were seeded into 96-well culture plates and test compounds were dissolved in DMSO and diluted with culture media (final 0.01% DMSO) and added into the media (final concentration of test compound was 20 μM) and cultured in the CO2 incubator (37° C., 5% CO2). Culture medium was changed every two days with fresh one and compound was treated again whenever medium was changed. Six to seven days after incubation, Alkaline phosphatase activity of cell lysates was measured by colorimetry. For the determination of mineralization within the cells, Von Kossa staining or Alizarin Red S assay was performed 10-14 days after incubation.

[3] = test system: human bone marrow derived-mesenchymal stem cells (hBMMSC); test: Osteogenesis modulating activity with osteogenic induction cocktails (ALP activity, mineralization); type: cell-based
Method: as §1
Osteogenesis modulating activity of test compounds with induction media: hBMMSC were culture with culture media containing osteogenic induction cocktails (OIC, 0.1 μM dexamethasone, 50 μM ascorbate-2-phosphate, 10 mM b-glycerophosphate). Four to five days after incubation, Alkaline phosphatase (ALP) activity of cell lysates were measured by colorimetry. For the determination of mineralization within the cells, Von Kossa staining or Alizarin Red S assay was performed 10-14 days after incubation.

ALP mRNA in hBMMSC = test: RT-PCR of alkaline phosphatase (ALP) mRNA in hBMMSC; type: cell-based, human; settings: compound treatment for 4 days
Method: RT-PCR. To analyze the mRNA levels for Alkaline phosphatase (ALP), total RNA was isolated using Trizol (Invitrogen-GIBCO-BRL, Baltimore, Md.) from hBMMSC with or without compound treatment for 4 days. 2 μg RNA was reverse transcribed in a total volume of 20 μl with random hexamer (50 ng), and using the Superscript II reverse transcription system (Invitrogen-GIBCO-BRL), according to manufacturer's guidelines. PCR was carried out in a 50 μl volume containing 5 μl cDNA, 100 pmol primers, 100 μM dNTPs, 1×Taq buffer and 1.5 mM MgCl2. Reaction mixtures were heated to 80° C. for 10 min, after which Taq was added. cDNAs were amplified for 25 ([…]) or 15 (GAPDH) cycles. One round of amplification consisted of 1 min at 94° C., 2 min at 60° C., and 2 min at 72° C., with a final extension time of 10 min at 72° C. The PCR products were resolved and visualized by electrophoresis in a 2% gel, stained with ethidium bromide. ALP PCR primers used were, 5′-[…]-3′ and 5′-[…]-3′. Primer pairs for GAPDH were 5′-[…]-3′ and 5′-[…]-3′. A housekeeping gene, GADPH was used as a control.

Row | SMILES | Cardiomyogenesis: fold change of EGFP expression level compared with DMSO control [1] | fold induction at 20 µM [2] | further results
1 | O=C1C(Cc2ccc(OCc3ccccc3)cc2)N2C(=O)CN(Cc3ccc(F)cc3)N(C(=O)NCc3ccccc3)C2CN1Cc1cccc(C(F)(F)F)c1 (stereo not shown) [#66] | 3.13 fold | 2.02 | cell proliferation (hBMMSC): 83%; ALP level enhanced ([2]; 20 μM, treated alone to hBMMSC): 202%; mineralization of hBMMSC ([3]; co-treated with osteogenic induction cocktails (OIC)): strongly induced mineralization; stimulation of mineralization at various concentrations ([3]; even at the 0.5 μM): osteogenesis inducing activity; ALP mRNA expression (ALP mRNA in hBMMSC): increased
2 | CN1CC(=O)N2[C@@H](Cc3ccc(OCc4ccccc4)cc3)C(=O)N(CCc3ccccc3)C[C@@H]2N1C(=O)NCc1ccccc1 [#35] | 1.03 fold | 0.94 | 
3 | Cc1ccc(C[C@H]2C(=O)N(CCc3ccccc3)C[C@H]3N2C(=O)CN(C)N3C(=O)NCc2ccccc2)cc1 [#36] | 0.54 fold | 1.55 | 
4 | CC(C)C[C@@H]1C(=O)N(CCc2ccc(Cl)cc2)CC2N1C(=O)CN(Cc1ccccc1)N2C(=O)NCc1ccccc1 (stereo partly shown) [#74] | 1.59 fold | 0.54 | 
5 | CN1CC(=O)N2C(CN(Cc3ccc(Cl)c(Cl)c3)C(=O)[C@H]2Cc2ccc(O)cc2)N1C(=O)NCc1cccnc1 (stereo partly shown) [#6] | 0.47 fold | 0.51 | 
6 | CN1C(=O)N2C(CN(CCSCc3ccccc3)C(=O)[C@@H]2Cc2ccc(O)cc2)N1C(=O)NCc1ccccc1 (stereo partly shown) [#108] | 1.19 fold | 0.94 | 
7 | CN1CC(=O)N2[C@H](Cc3ccccc3)C(=O)N(CCc3ccccc3)C[C@H]2N1C(=O)NCc1ccccc1 [#31] | 1.10 fold | 1 | 
8 | CCCCNC(=O)N1C2CN(CCCCc3ccccc3)C(=O)C(CC(=O)O)N2C(=O)CN1Cc1cccc(F)c1 (stereo not shown) [#43] | 1.17 fold | 0.33 | 
9 | C=CCN1CC(=O)N2[C@@H](c3ccccc3)C(=O)N(CCc3ccccc3)C[C@@H]2N1C(=O)NCc1ccccc1 [#90] | 2.10 fold | 0.51 | 
10 | C=CCN1CC(=O)N2[C@@H](Cc3ccccc3)C(=O)N(CCc3ccccc3)C[C@@H]2N1C(=O)NCc1ccccc1 [#87] | 0.89 fold | 0.59 | 
11 | CCCN1CC(=O)N2C(CN(CCC(C)C)C(=O)[C@@H]2CCC(=O)O)N1C(=O)NCc1ccccc1 (stereo partly shown) [#95] | 2.22 fold | 1.19 | 
12 | CCCCNC(=O)N1[C@H]2CN([C@@H](C)c3ccccc3)C(=O)[C@H](CC(C)C)N2C(=O)CN1Cc1ccc(C)cc1 [#46] | 1.90 fold | 1.02 | 
13 | CN1CC(=O)N2[C@@H](Cc3ccc(O)cc3)C(=O)N(Cc3cccc4[nH]ncc34)C[C@@H]2N1C(=O)NCc1ccccc1 [#11] | 0.07 fold | 0.3 | 
14 | CCCCNC(=O)N1[C@H]2CN(CCCCc3ccccc3)C(=O)[C@H](CCC)N2C(=O)CN1Cc1cccc(F)c1 [#42] | 1.87 fold | 0.31 | 
15 | CCCN1CC(=O)N2C(CC(=O)O)C(=O)N(CCC(C)C)C[C@H]2N1C(=O)NCc1ccccc1 (stereo partly shown) [#94] | 3.02 fold | 0.69 | 
16 | CC(C)C[C@H]1C(=O)N(C2CCCCC2)C[C@H]2N1C(=O)N(C)N2C(=O)NCc1ccccc1 [#105] | 1.12 fold | 0.8 | 
17 | CC(C)CN1C[C@H]2N(C(=O)CN(C)N2C(=O)NCc2ccccc2)[C@@H](CCC(=O)O)C1=O [#17] | 2.52 fold | 1.29 | 
18 | C=CCN1CC(=O)N2[C@@H](Cc3ccc(C)cc3)C(=O)N(Cc3ccc(F)cc3)C[C@@H]2N1C(=O)NCc1ccccc1 [#84] | 1.32 fold | 0.69 | 
19 | C=CCOC(=O)NCCC[C@@H]1C(=O)N(Cc2ccc(OC)cc2)CC2N1C(=O)CN(C)N2C(=O)NCc1ccccc1 (stereo partly shown) [#26] | 1.74 fold | 1.01 | 
20 | CC[C@H]1C(=O)N(Cc2cccc(C(F)(F)F)c2)C[C@H]2N1C(=O)CN(Cc1ccc(F)cc1)N2C(=O)NCc1ccccc1 [#68] | 0.69 fold | 0.91 | 
21 | CCCN1CC(=O)N2C(CN(CCC(C)C)C(=O)[C@@H]2CC(C)C)N1C(=O)NCc1ccccc1 (stereo partly shown) [#93] | 0.57 fold | 0.63 | 
22 | CN1C(=O)N2[C@@H](Cc3ccc(O)cc3)C(=O)N(CCc3ccc(F)cc3)C[C@@H]2N1C(=O)NCc1ccccc1 [#99] | 1.74 fold | 0.46 | 
23 | COc1ccc(CN2C[C@H]3N(C(=O)CN(C)N3C(=O)NCc3ccccc3)[C@@H](c3ccccc3)C2=O)cc1 [#25] | 1.78 fold | 0.6 | 
24 | COc1ccc(C[C@H]2C(=O)N(CCc3ccccc3)C[C@H]3N2C(=O)CN(C)N3C(=O)NCc2ccccc2)cc1 [#34] | 1.71 fold | 1.03 | 
25 | CN1C(=O)N2[C@@H](Cc3ccc(O)cc3)C(=O)N(Cc3cccc4ccccc34)C[C@@H]2N1C(=O)NCc1ccccc1 [#100] | 1.35 fold | 1.11 | 
26 | O=C1[C@H](Cc2ccc(OCc3ccccc3)cc2)N2C(=O)CN(Cc3ccccc3)N(C(=O)NCc3ccccc3)[C@H]2CN1CCc1ccc(Cl)cc1 [#77] | 1.40 fold | 0.98 | 
27 | CC(C)C[C@@H]1C(=O)N(Cc2cccc(C(F)(F)F)c2)C[C@@H]2N1C(=O)CN(Cc1ccc(F)cc1)N2C(=O)NCc1ccccc1 [#63] | 0.47 fold | 0.41 | 
28 | CN1CC(=O)N2[C@@H](Cc3ccc(O)c(C(C)(C)C)c3)C(=O)N(Cc3cccc4cccnc34)C[C@@H]2N1C(=O)NCc1ccccc1 [#7] | 1.22 fold | 0.51 | 
